According to the supplement of paper PMC13380429:

Assays:
[1] = system: A549-ACE2 infected with SARS-CoV-2; assay: cell count relative to DMSO; higher = less toxic; conditions: 24 h
[2] = system: Caco-2; assay: cell viability relative to DMSO; higher = less toxic; conditions: 72 h
[3] = system: Calu-3; assay: as above; conditions: 72 h
[4] = system: HepG2; assay: as above; conditions: 72 h
[5] = system: U2OS; assay: as above; conditions: 72 h
[6] = system: Vero E6; assay: as above; conditions: 72 h
[7] = system: A549-ACE2 infected with SARS-CoV-2; assay: SARS-CoV-2 infection rate relative to DMSO; higher = more infection; conditions: 24 h
[8] = system: A549-ACE2; assay: drug-induced phospholipidosis relative to tamoxifen; higher = more phospholipidosis
[9] = system: A549-ACE2 infected with SARS-CoV-2; assay: morphology score (similarity to uninfected cells); higher = more like uninfected cells; conditions: 24 h
[10] = system: Caco-2; assay: relative viability EC50 (midpoint between 100% and the lowest measured viability); higher = less toxic; conditions: 72 h
[11] = system: Calu-3; assay: as above; conditions: 72 h
[12] = system: HepG2; assay: as above; conditions: 72 h
[13] = system: U2OS; assay: as above; conditions: 72 h
[14] = system: Vero E6; assay: as above; conditions: 72 h
[15] = system: Caco-2; assay: drug sensitivity score (DSS) for viability; higher = more toxic; extreme values may be limits of the assay; conditions: 72 h
[16] = system: Calu-3; assay: as above; conditions: 72 h
[17] = system: HepG2; assay: as above; conditions: 72 h
[18] = system: U2OS; assay: as above; conditions: 72 h
[19] = system: Vero E6; assay: as above; conditions: 72 h

CC1(C)CC[C@]2(C(=O)O)CC[C@]3(C)[C@H](C(=O)C=C4[C@@]5(C)C=C(C#N)C(=O)C(C)(C)[C@@H]5CC[C@]43C)[C@@H]2C1 [bardoxolone]
Conditions	SARS-CoV-2 infection rate, [7] [%]	cell count, [1] [%]	cell viability, [2] [%]	cell viability, [3] [%]	cell viability, [4] [%]	cell viability, [5] [%]	cell viability, [6] [%]	morphology score, [9]
1 nM	–	–	91.3	102	98.2	101	101	–
10 nM	–	–	107	104	92.1	104	102	–
0.1 µM	97	101	–	–	–	–	–	0.07
100 nM	–	–	78.1	102	89.7	102	111	–
0.3 µM	99	91	–	–	–	–	–	-0.05
1 µM	99	89	–	–	–	–	–	-0.09
1000 nM	–	–	83.8	92.5	62.8	72.3	104	–
3 µM	115	94	–	–	–	–	–	-0.26
10000 nM	–	–	82.9	15.5	5.4	12	18.3	–

drug-induced phospholipidosis [%], [8]
Conditions	0.3 µM	0.833333 µM	3.33333 µM	6.66667 µM	10 µM
24 h	-1.07	-5.8	7.86	18.2	-6.56
48 h	-3.77	-7.72	1.1	–	–
72 h	-2.71	-7.17	–	–	–

Conditions	drug sensitivity score	relative viability EC50 [µM]
[10]	–	> 10
[11]	–	2.44
[12]	–	1.28
[13]	–	1.37
[14]	–	3.43
[15]	5.3	–
[16]	5.9	–
[17]	9.5	–
[18]	8.9	–
[19]	4.2	–

NCCc1c[nH]c2ccc(C(N)=O)cc12 [5-carboxamidotryptamine]
Conditions	SARS-CoV-2 infection rate, [7] [%]	cell count, [1] [%]	cell viability, [2] [%]	cell viability, [3] [%]	cell viability, [4] [%]	cell viability, [5] [%]	cell viability, [6] [%]	morphology score, [9]
1 nM	–	–	97.8	93.2	105	101	98.8	–
10 nM	–	–	96.5	104	96.2	97.8	104	–
100 nM	–	–	102	96	95.2	99.1	103	–
0.3 µM	100	98	–	–	–	–	–	-0.09
1000 nM	–	–	102	104	102	98	97.4	–
3 µM	99	96	–	–	–	–	–	-0.06
10 µM	101	105	–	–	–	–	–	-0.11
10000 nM	–	–	98.7	102	98.9	99.5	97.2	–
30 µM	93	102	–	–	–	–	–	0.09

drug-induced phospholipidosis [%], [8]
Conditions	0.3 µM	0.833333 µM	3.33333 µM	6.66667 µM	10 µM	30 µM
24 h	1.09	-2.6	-3.13	-2	-0.66	2.03
48 h	2.16	-0.39	0.18	-1.08	-0.13	2.67
72 h	3.22	-1.61	-0.768	-1.96	0.562	3.08

Conditions	drug sensitivity score	relative viability EC50 [µM]
[10]	–	> 10
[11]	–	> 10
[12]	–	> 10
[13]	–	> 10
[14]	–	> 10
[15]	0	–
[16]	0	–
[17]	0	–
[18]	0	–
[19]	0	–

Cn1cc(-c2ccc3c(c2)CCN3C(=O)Cc2cccc(C(F)(F)F)c2)c2c(N)ncnc21
Conditions	SARS-CoV-2 infection rate, [7] [%]	cell count, [1] [%]	cell viability, [2] [%]	cell viability, [3] [%]	cell viability, [4] [%]	cell viability, [5] [%]	cell viability, [6] [%]	morphology score, [9]
1 nM	–	–	100	106	87.4	103	95.3	–
10 nM	–	–	86.6	94	98.3	97.4	94	–
0.1 µM	102	97	–	–	–	–	–	0.02
100 nM	–	–	66.9	96	84	102	96.6	–
0.3 µM	96	104	–	–	–	–	–	0.18
1 µM	102	105	–	–	–	–	–	0.12
1000 nM	–	–	103	92.5	101	95.2	107	–
3 µM	87	112	–	–	–	–	–	0.4
10000 nM	–	–	61.6	68.9	48.6	77.3	67.1	–

drug-induced phospholipidosis [%], [8]
Conditions	0.3 µM	0.833333 µM	3.33333 µM	6.66667 µM	10 µM	30 µM
24 h	1.57	0.73	1.92	3.67	12.1	28.6
48 h	3.63	1.52	3.02	3.48	8.65	18.6
72 h	2.2	0.314	1.31	3.34	7.89	22.2

Conditions	drug sensitivity score	relative viability EC50 [µM]
[12]	–	3.28
[13]	–	> 10
[15]	4.7	–
[16]	2.4	–
[17]	2.6	–
[18]	1.5	–
[19]	1.2	–

O=C1Cc2c([nH]c3ccc(Br)cc23)-c2ccccc2N1 [kenpaullone]
Conditions	SARS-CoV-2 infection rate, [7] [%]	cell count, [1] [%]	cell viability, [2] [%]	cell viability, [3] [%]	cell viability, [4] [%]	cell viability, [5] [%]	cell viability, [6] [%]	morphology score, [9]
1 nM	–	–	99.6	92.1	110	98.4	93.4	–
10 nM	–	–	93.2	95.1	96.2	98.9	93.6	–
100 nM	–	–	100	98.9	100	98.8	90.1	–
0.3 µM	106	103	–	–	–	–	–	0.06
1000 nM	–	–	102	113	108	104	101	–
3 µM	96	100	–	–	–	–	–	0.37
10 µM	94	85	–	–	–	–	–	0.47
10000 nM	–	–	96	101	100	82.3	115	–
30 µM	88	67	–	–	–	–	–	0.48

drug-induced phospholipidosis [%], [8]
Conditions	0.3 µM	0.833333 µM	3.33333 µM	6.66667 µM	10 µM	30 µM
24 h	-0.53	-1.07	-1.23	1.24	-0.93	4.23
48 h	1.47	-0.14	1.75	3.52	2.75	2.49
72 h	2.92	0.874	5.13	6.52	5.66	9.54

Conditions	drug sensitivity score	relative viability EC50 [µM]
[10]	–	> 10
[11]	–	> 10
[12]	–	> 10
[13]	–	> 10
[14]	–	> 10
[15]	0	–
[16]	0	–
[17]	0	–
[18]	0.3	–
[19]	0	–
